The values below come from ChEMBL document CHEMBL1143680, “Alboatisins A-C, ent-atisene diterpenoids from Isodon albopilosus” (J Nat Prod, 2007).

What all share (type): functional, cell-based
Test [1] concerns A549. The test can be described thus: Cytotoxicity against human A549 cells after 72 hrs by SRB assay. Conditions: A549, 72 h. (In general: The SRB assay estimates cell density from bound dye.)
For test [2], the system named is HT-29. The test can be described thus: Cytotoxicity against human HT29 cells after 72 hrs by SRB assay. Conditions: HT-29, 72 h.
The subject of test [3] is K562. The test can be described thus: Cytotoxicity against human K562 cells after 72 hrs by SRB assay. Conditions: K562, 72 h.

The IC50 is the concentration needed to halve the response being measured.

Consider `C=C1C(=O)[C@]23C[C@@H](O)[C@H]1C[C@H]2[C@]1(C)CCC[C@](C)(CO)[C@H]1C[C@H]3O` [ALBOATISIN C], for which the IC50 worked out at 12.5 µM in test [1], 20.6 µM in test [2] and 28 µM in test [3].

Take `C=C1C(=O)[C@@]23[C@H](O)C[C@@H]4[C@@](C)(CO)CCC[C@@]4(C)[C@@H]2C[C@@H]1[C@H](O)[C@H]3O` [ALBOATISINS A]: the IC50 stood at 10.5 µM in test [1], 15.6 µM in test [2] and 24.6 µM in test [3].

As for `C=C1C(=O)[C@@]23[C@H](O)C[C@H]4[C@@](C)(CCC[C@]4(C)C=O)[C@@H]2C[C@@H]1[C@H](O)[C@H]3O` [ALBOATISINS B], the IC50 in test [1] was 8.3 µM; in test [2], 7.9 µM; in test [3], 13.6 µM.
